What was measured:
[1] = test system: Erysiphe graminis f.sp. hordei; experiment: Activity against barley powdery mildew, direct therapeutic (EGT); format: in vivo; details: direct therapeutic foliar spray, 600 ppm, up to 7 days
Summary of the method: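 A curative spray at 600 ppm was applied to single-leaf Golden Promise barley inoculated with powdery mildew conidia the previous day. After up to 7 days at 18 °C and 40% humidity, disease control was rated from percent leaf area sporulating relative to untreated or diluent-sprayed controls.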

[2] = test system: Leptosphaeria nodorum; experiment: Activity against wheat leafspot (LN); format: in vivo; details: direct therapeutic foliar spray, 600 ppm, 6-8 days
Summary of the method: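 Therapeutic foliar spray: compound at 600 ppm applied to single-leaf wheat (cv Norman) 24 h after inoculation with 1.5×10^6 conidia/ml. Disease control scored after 6-8 days at 22° C and 70% humidity as lesions per leaf versus untreated or diluent-sprayed controls.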

[3] = test system: Phytophthora infestans; format: in vivo; details: tomato, direct protectant foliar spray
[4] = test system: Erysiphe graminis f.sp. hordei; experiment: Direct protectant activity against barley powdery mildew (EGP); format: in vivo; details: direct protectant foliar spray, 8 days
Summary of the method: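 Rating reflects percentage of leaf area with sporulation compared with untreated or diluent-sprayed controls. Protectant spray was applied to single-leaf barley (cv Golden Promise) 24 h before conidia inoculation. Plants were kept at 18 °C and 40% RH throughout, with 8 days of disease development.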

[5] = test system: Rhizoctonia solani; experiment: Activity against Rhizoctonia in-vitro (RSI); format: cell-based; details: 10 ppm, 10 days, 20° C., mycelial growth
Summary of the method: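 Compound at a final 10 ppm (acetone vehicle) in half-strength PDB, inoculated with 5×10^4 fragments/ml of shaken-culture R. solani mycelium. After incubation at 20° C for 10 days, growth scored as a rating versus untreated or diluent-treated controls.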

[6] = test system: Venturia inaequalis; experiment: Activity against apple scab in-vitro (VII); format: cell-based; details: 10 ppm, 10 days, 20° C., mycelial growth
Summary of the method: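 V. inaequalis propagules (5×10^4/ml, malt agar-grown) were exposed in half-strength PDB to 10 ppm final test compound delivered in acetone. Growth was scored after incubation for 10 days at 20° C, as a rating relative to untreated or diluent-sprayed controls.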

[7] = test system: Alternaria solani; experiment: Activity against tomato early blight (AS); format: in vivo; details: Table VI; tomato seedlings, contact prophylactic foliar spray, 4 days
Summary of the method: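 Plants were challenged with A. solani conidia (10^4 spores/ml) 24 h after a protective foliar spray of compound in 50:50 acetone/water plus 0.04% Tween 20. Held humid at 21° C for 4 days, then percent leaf area with lesions was scored as a rating relative to controls.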

[8] = test system: Pseudocercosporella herpotrichoides; experiment: Activity against wheat eyespot in-vitro (PHI); format: cell-based; details: 10 ppm, 10 days, 20° C., mycelial growth
Summary of the method: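 Mycelial growth was scored after 10 days at 20 °C against untreated or diluent controls. The broth was half-strength potato dextrose, holding 10 ppm test compound (from acetone) and 5×10^4 fragments/ml of the eyespot fungus.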

[9] = test system: Plasmopara viticola; experiment: Antisporulant activity against vine downy mildew (PVA); format: in vivo; details: vine leaves, antisporulant foliar spray, 600 ppm, 750 l/ha
Summary of the method: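 Cabernet Sauvignon vines (~8 cm) inoculated on lower leaf surfaces with 5×10^4 zoosporangia/ml, held 24 h at 21° C high humidity then 24 h glasshouse. Infected leaves sprayed underside with 600 ppm compound in 1:1 water/acetone, 0.04% Tween 20, 750 l/ha; 96 h glasshouse, 24 h humidity. Sporulating leaf area rated versus control.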

[10] = test system: Botrytis cinerea; experiment: Direct protectant activity against broad bean grey mould (BCB); format: in vivo; details: direct protectant foliar spray, 600 ppm, 4 days
Summary of the method: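 Protectant foliar test: lesion coverage assessed 4 days after inoculation and rated relative to untreated or diluent-sprayed plants. Compound applied at 600 ppm to cv The Sutton leaves 24 h before 10^6 conidia/ml suspension; incubation at 22 °C in high humidity.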

[11] = test system: Pyricularia oryzae; format: in vivo; details: rice seedlings, direct therapeutic foliar spray, 600 ppm, 4-5 days

Row | Structure (SMILES) | disease control rating EGT [1] | disease control rating LN [2] | disease control rating PIP [3] | disease control rating EGP [4] | disease control rating RSI [5] | disease control rating VII [6] | disease control rating AS [7] | disease control rating PHI [8] | disease control rating PVA [9] | disease control rating BCB [10] | disease control rating PO [11]
1 | CC(C)(C)C1CCC2(CC1)CC(NCCC1CCCCC1)CO2 (stereo not shown) [Compound 100] | 2 (greater than 80% disease control) | 0 (less than 50% disease control) | 2 (greater than 80% disease control) | 2 (greater than 80% disease control) | 1 (about 50-80% disease control) | 2 (greater than 80% disease control) | 0 (less than 50% disease control) | 1 (about 50-80% disease control) | 0 (less than 50% disease control) | 2 (greater than 80% disease control) | 0 (less than 50% disease control)
2 | CCCCCC(C)NC1COC2(CCC(C(C)(C)C)CC2)C1 (stereo not shown) [Compound 101] | 2 (greater than 80% disease control) | 0 (less than 50% disease control) | 0 (less than 50% disease control) | 2 (greater than 80% disease control) | 0 (less than 50% disease control) | 2 (greater than 80% disease control) | 0 (less than 50% disease control) | 1 (about 50-80% disease control) | 0 (less than 50% disease control) | 2 (greater than 80% disease control) | 0 (less than 50% disease control)
3 | CCCCC(CC)NC1COC2(CCC(C(C)(C)C)CC2)C1 (stereo not shown) [Compound 102] | 2 (greater than 80% disease control) | 0 (less than 50% disease control) | 0 (less than 50% disease control) | 2 (greater than 80% disease control) | 0 (less than 50% disease control) | 2 (greater than 80% disease control) | 0 (less than 50% disease control) | 0 (less than 50% disease control) | 0 (less than 50% disease control) | 1 (about 50-80% disease control) | 0 (less than 50% disease control)
4 | C=CCN(CC=C)C1COC2(CCC(C(C)(C)C)CC2)C1 (stereo not shown) [Compound 103] | 2 (greater than 80% disease control) | 0 (less than 50% disease control) | 2 (greater than 80% disease control) | 2 (greater than 80% disease control) | 0 (less than 50% disease control) | 1 (about 50-80% disease control) | 0 (less than 50% disease control) | 0 (less than 50% disease control) | 0 (less than 50% disease control) | 2 (greater than 80% disease control) | 0 (less than 50% disease control)
5 | CC(C)(C)C1CCC2(CC1)CC(NC1CCCCCC1)CO2 (stereo not shown) [Compound 104] | 2 (greater than 80% disease control) | 1 (about 50-80% disease control) | 2 (greater than 80% disease control) | 2 (greater than 80% disease control) | 0 (less than 50% disease control) | 1 (about 50-80% disease control) | 0 (less than 50% disease control) | 0 (less than 50% disease control) | 0 (less than 50% disease control) | 0 (less than 50% disease control) | 0 (less than 50% disease control)
6 | CCCCCCC(C)NC1COC2(CCC(C(C)(C)C)CC2)C1 (stereo not shown) [Compound 105] | 2 (greater than 80% disease control) | 1 (about 50-80% disease control) | 0 (less than 50% disease control) | 2 (greater than 80% disease control) | 2 (greater than 80% disease control) | 2 (greater than 80% disease control) | 0 (less than 50% disease control) | 2 (greater than 80% disease control) | 0 (less than 50% disease control) | 1 (about 50-80% disease control) | 0 (less than 50% disease control)
7 | CC(C)(C)CC(C)(C)NC1COC2(CCC(C(C)(C)C)CC2)C1 (stereo not shown) [Compound 106] | 2 (greater than 80% disease control) | 0 (less than 50% disease control) | 2 (greater than 80% disease control) | 2 (greater than 80% disease control) | 0 (less than 50% disease control) | 1 (about 50-80% disease control) | 0 (less than 50% disease control) | 0 (less than 50% disease control) | 0 (less than 50% disease control) | 0 (less than 50% disease control) | 0 (less than 50% disease control)
8 | CC(C)CCCC(C)NC1COC2(CCC(C(C)(C)C)CC2)C1 (stereo not shown) [Compound 107] | 2 (greater than 80% disease control) | 0 (less than 50% disease control) | 2 (greater than 80% disease control) | 2 (greater than 80% disease control) | 1 (about 50-80% disease control) | 1 (about 50-80% disease control) | 0 (less than 50% disease control) | 1 (about 50-80% disease control) | 0 (less than 50% disease control) | 0 (less than 50% disease control) | 0 (less than 50% disease control)

— patent publication US5591741A, “Fungicidal spiroheterocyclic derivatives” (American Cyanamid Company, priority 1993, dated 1997)
